For test [1], the target named is T1, Alpha-1A adrenergic receptor (Homo sapiens, UniProt P35348).
T1 sequence (P35348 whole entry): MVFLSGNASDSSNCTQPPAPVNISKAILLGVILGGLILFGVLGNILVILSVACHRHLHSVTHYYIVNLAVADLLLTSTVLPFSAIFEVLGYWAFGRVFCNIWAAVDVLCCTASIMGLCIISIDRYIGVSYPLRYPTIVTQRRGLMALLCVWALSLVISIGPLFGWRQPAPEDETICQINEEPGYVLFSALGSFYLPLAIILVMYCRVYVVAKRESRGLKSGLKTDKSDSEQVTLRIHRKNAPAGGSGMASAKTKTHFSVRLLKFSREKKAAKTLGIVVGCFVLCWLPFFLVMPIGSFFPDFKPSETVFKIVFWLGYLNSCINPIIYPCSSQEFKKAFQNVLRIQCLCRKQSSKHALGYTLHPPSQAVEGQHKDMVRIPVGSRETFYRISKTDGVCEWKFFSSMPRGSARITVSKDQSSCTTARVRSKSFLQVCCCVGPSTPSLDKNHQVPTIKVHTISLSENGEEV
Format: functional, cell-based.

Test [2] concerns the target Gamma-aminobutyric acid receptor subunit alpha-1/alpha-2/beta-2/gamma-2 (Homo sapiens, UniProt P14867+P18507+P47869+P47870). Format: protein-complex assay.
For test [3], the target named is Gamma-aminobutyric acid receptor subunit alpha-1 (Rattus norvegicus, UniProt P62813).
For test [4], the target named is Beta-1 adrenergic receptor (Homo sapiens, UniProt P08588). Format: functional.
The target of test [5] is Delta-type opioid receptor (Homo sapiens, UniProt P41143).
Test [6] addresses T2, Adenosine receptor A1 (Homo sapiens, UniProt P30542).
T2 sequence (P30542 whole entry): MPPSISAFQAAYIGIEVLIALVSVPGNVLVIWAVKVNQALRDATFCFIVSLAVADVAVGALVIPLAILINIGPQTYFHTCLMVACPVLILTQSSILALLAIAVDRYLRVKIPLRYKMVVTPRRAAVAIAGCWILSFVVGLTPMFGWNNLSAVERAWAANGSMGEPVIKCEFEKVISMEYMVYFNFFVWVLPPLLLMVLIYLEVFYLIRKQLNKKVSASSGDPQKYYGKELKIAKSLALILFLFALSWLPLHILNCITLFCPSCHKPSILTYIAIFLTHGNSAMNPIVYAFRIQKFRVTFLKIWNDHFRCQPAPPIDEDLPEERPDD

Test [7] has as its target T3, Glucocorticoid receptor (Homo sapiens, UniProt P04150).
T3 sequence (P04150 whole entry): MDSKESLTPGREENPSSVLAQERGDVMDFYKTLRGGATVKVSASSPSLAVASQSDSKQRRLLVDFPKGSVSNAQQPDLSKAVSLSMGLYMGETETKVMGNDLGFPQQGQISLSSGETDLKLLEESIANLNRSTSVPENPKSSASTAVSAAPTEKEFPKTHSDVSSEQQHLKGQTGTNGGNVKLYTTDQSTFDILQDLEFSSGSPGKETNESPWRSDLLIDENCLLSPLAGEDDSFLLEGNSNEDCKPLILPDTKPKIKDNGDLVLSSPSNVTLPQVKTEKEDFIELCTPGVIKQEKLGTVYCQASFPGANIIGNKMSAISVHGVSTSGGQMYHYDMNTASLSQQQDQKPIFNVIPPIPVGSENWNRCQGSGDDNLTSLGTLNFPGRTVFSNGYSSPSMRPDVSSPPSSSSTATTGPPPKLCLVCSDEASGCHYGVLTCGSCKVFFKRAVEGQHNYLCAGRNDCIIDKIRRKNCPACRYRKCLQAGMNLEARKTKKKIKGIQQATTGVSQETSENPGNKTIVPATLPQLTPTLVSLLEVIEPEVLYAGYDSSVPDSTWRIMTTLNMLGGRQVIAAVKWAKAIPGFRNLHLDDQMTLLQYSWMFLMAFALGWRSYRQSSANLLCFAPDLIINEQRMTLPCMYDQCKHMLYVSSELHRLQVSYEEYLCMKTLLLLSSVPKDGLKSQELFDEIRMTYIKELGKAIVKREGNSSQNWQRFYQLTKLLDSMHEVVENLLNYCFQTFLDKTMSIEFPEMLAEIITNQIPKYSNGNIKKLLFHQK

The target of test [8] is 5-hydroxytryptamine receptor 2B (Homo sapiens, UniProt P41595). The class given is functional, cell-based.
For test [9], the target named is T4, 5-hydroxytryptamine receptor 1A (Homo sapiens, UniProt P08908).
T4 sequence (P08908 whole entry): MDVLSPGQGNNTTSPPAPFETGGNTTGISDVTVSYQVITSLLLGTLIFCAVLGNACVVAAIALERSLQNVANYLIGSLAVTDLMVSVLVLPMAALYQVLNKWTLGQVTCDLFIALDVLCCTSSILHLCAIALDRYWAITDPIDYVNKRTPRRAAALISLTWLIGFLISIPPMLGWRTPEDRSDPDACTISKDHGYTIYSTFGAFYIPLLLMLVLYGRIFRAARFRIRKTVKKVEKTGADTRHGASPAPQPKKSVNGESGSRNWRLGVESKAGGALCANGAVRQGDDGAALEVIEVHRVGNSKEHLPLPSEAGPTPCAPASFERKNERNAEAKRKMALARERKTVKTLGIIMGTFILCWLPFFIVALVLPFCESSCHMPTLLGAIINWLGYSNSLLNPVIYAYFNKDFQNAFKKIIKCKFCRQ
The class given is functional, cell-based.

For 2 molecules, AC50 results are on record in ChEMBL document CHEMBL5291721, “A preclinical secondary pharmacology resource illuminates target-adverse drug reaction associations of marketed drugs” (Nat Commun, 2023).

Each structure is given as a SMILES string.
Note: assay procedure not described here.

Sequence of Gamma-aminobutyric acid receptor subunit alpha-1/alpha-2/beta-2/gamma-2 (P14867 whole entry): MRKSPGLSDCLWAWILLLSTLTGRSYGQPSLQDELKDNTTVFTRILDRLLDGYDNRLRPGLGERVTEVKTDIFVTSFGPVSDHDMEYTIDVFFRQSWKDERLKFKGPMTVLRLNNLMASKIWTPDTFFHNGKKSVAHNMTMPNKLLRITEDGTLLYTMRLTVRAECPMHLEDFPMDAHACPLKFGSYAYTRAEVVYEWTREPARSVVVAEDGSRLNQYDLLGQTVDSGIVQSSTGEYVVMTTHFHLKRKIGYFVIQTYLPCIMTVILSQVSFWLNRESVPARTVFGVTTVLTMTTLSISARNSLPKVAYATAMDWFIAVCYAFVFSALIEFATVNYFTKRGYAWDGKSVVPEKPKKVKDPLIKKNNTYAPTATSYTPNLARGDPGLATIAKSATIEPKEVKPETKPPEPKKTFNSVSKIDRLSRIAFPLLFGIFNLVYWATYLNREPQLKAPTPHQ
Sequence of Gamma-aminobutyric acid receptor subunit alpha-1/alpha-2/beta-2/gamma-2 (P47870 whole entry): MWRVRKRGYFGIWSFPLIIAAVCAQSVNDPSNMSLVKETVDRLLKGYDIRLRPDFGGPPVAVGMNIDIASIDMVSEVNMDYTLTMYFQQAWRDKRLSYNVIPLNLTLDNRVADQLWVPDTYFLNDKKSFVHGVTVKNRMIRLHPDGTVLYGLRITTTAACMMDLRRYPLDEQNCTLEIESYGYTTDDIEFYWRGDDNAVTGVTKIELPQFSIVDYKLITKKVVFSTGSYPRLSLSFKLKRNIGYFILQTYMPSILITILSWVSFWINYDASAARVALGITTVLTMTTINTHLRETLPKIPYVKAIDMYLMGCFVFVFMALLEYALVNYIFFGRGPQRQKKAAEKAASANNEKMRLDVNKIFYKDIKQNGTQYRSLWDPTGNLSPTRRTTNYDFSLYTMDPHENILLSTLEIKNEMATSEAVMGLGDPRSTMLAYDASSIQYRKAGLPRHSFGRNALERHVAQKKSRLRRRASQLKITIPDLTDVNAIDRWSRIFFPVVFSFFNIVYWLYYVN
Sequence of Gamma-aminobutyric acid receptor subunit alpha-1/alpha-2/beta-2/gamma-2 (P18507 whole entry): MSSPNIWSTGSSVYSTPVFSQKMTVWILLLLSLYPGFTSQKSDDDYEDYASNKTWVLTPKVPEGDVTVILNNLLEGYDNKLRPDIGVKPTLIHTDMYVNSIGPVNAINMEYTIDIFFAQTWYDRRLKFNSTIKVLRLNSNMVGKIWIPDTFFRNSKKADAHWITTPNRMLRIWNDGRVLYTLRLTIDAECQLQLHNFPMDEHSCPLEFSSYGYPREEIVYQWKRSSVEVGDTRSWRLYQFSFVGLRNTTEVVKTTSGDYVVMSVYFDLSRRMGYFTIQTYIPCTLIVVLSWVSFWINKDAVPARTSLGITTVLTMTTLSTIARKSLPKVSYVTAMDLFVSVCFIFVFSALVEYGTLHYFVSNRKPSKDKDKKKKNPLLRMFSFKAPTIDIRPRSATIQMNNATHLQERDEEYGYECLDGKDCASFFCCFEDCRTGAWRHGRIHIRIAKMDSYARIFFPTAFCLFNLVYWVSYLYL
Sequence of Gamma-aminobutyric acid receptor subunit alpha-1/alpha-2/beta-2/gamma-2 (P47869 whole entry): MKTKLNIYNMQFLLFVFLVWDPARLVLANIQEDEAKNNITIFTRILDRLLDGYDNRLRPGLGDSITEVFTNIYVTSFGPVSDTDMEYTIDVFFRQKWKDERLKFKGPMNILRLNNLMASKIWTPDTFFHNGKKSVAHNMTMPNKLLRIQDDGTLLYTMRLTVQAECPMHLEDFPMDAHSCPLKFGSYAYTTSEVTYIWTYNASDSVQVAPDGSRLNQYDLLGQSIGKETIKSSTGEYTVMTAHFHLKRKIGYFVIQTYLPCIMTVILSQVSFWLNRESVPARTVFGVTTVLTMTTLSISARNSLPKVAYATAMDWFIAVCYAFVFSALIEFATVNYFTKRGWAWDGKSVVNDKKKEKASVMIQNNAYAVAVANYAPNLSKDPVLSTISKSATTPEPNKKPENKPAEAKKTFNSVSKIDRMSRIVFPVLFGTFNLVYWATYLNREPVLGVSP
Sequence of Delta-type opioid receptor (P41143 whole entry): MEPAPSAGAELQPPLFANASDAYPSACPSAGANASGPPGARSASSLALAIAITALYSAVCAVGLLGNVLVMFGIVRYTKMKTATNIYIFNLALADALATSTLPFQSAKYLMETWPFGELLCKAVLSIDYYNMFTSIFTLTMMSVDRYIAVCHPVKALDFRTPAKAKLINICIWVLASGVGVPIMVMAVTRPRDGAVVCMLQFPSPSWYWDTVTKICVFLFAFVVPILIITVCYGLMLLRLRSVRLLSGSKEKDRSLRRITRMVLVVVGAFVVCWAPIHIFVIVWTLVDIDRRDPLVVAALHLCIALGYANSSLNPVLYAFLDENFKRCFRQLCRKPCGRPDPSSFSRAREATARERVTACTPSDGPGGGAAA
Sequence of 5-hydroxytryptamine receptor 2B (P41595 whole entry): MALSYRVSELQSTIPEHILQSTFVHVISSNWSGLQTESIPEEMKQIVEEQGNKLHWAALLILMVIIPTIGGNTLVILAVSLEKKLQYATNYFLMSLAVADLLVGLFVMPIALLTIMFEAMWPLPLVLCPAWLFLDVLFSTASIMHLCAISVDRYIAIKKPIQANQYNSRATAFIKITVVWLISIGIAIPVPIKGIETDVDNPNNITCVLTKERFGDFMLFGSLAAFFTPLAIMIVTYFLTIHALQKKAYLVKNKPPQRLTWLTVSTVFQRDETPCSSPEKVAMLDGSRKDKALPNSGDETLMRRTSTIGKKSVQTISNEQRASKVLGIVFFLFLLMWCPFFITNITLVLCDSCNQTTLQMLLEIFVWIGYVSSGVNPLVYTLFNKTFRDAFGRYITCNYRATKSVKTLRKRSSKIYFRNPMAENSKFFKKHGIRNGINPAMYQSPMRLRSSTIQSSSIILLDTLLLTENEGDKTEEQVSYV
Sequence of Beta-1 adrenergic receptor (P08588 whole entry): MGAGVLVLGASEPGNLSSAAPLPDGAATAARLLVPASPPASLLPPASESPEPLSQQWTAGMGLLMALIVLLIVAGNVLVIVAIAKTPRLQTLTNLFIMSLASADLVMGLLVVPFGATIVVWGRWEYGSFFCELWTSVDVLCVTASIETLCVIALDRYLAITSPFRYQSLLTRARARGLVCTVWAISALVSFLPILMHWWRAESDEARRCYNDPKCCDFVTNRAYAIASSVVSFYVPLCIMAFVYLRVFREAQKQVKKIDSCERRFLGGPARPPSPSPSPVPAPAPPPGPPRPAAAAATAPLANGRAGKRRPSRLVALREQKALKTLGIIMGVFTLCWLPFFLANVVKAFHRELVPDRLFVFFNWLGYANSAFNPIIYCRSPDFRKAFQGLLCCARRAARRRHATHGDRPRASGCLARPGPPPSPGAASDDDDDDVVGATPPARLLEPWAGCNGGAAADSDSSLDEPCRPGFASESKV
Sequence of Gamma-aminobutyric acid receptor subunit alpha-1 (P62813 whole entry): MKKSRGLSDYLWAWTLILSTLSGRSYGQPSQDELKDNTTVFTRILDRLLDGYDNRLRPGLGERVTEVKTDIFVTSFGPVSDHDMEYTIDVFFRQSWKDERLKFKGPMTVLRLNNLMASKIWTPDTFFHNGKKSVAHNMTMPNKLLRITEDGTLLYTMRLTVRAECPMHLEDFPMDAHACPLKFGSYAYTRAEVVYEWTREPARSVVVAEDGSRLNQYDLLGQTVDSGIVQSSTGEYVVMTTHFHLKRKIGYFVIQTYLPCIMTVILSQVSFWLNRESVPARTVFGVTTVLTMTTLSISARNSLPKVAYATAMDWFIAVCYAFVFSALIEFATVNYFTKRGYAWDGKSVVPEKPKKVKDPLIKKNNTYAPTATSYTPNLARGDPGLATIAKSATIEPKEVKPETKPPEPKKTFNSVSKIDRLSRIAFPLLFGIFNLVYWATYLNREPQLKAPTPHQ

As a reminder, the AC50 is the concentration at which the activity in the assay is half-maximal. Higher therefore signals weaker potency. On to `COc1nccnc1NS(=O)(=O)c1ccc(N)cc1`, for which the half-maximal activity concentration (AC50) in test [1], in test [2] and in [3] was over 30 µM each time.

`CC(=O)/N=c1/sc(S(N)(=O)=O)nn1C` [METHAZOLAMIDE]: the AC50 in test [4] is over 10 µM; in test [5], over 30 µM; in test [1], over 30 µM; in test [6] it was over 10 µM; in [7], over 10 µM; in [2], over 30 µM. In addition, the AC50 in [8] and in [9] was over 10 µM throughout.
